Values after ≈ are worked out from the molar mass of the structure shown. Like-named read-outs stand apart in the source and are kept apart here.
How the values were obtained:
[1] = target: Human plasma kallikrein (Homo sapiens (Human), UniProt P03952); experiment: Determination of the IC50 for plasma kallikrein; assay type: biochemical; conditions: 37° C., read-out: IC50 (human PKal)
How it was run: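 Human plasma kallikrein incubated at 37° C with fluorogenic substrate H-DPro-Phe-Arg-AFC and varying compound concentrations. Initial reaction rate followed by absorbance change at 410 nm to give residual activity and IC50.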

[2] = target: Human KLK1 (Homo sapiens (Human), UniProt P06870); experiment: Determination of the IC50 for KLK1; assay type: biochemical; conditions: Human KLK1, 37° C., substrate H-DVal-Leu-Arg-AFC
Human KLK1, sequence (P06870 25-262): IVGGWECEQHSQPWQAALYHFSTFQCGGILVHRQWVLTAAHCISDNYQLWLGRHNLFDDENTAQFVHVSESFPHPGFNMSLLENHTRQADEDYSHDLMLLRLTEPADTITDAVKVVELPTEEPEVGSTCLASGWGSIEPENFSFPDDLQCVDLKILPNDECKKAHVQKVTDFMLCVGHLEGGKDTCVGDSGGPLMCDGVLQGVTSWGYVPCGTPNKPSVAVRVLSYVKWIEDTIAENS
How it was run: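 Test compound at various concentrations was incubated with human KLK1 and the fluorogenic substrate H-DVal-Leu-Arg-AFC at 37° C. Absorbance change at 410 nm gave the initial reaction rate, from which IC50 was obtained.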

[3] = target: Factor XIIa (Homo sapiens (Human), UniProt P00748); experiment: Determination of enzyme selectivity: Factor XIIa; assay type: biochemical; conditions: fluorogenic substrate at Km concentration
Factor XIIa, sequence (P00748 373-615): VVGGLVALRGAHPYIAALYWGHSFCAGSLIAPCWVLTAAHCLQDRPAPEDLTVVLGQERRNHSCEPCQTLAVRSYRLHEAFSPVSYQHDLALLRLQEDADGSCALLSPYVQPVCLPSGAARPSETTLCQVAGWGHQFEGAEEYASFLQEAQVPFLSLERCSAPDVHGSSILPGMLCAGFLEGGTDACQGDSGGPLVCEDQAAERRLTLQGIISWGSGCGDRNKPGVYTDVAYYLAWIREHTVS
Experimental: Determination of Enzyme Selectivity
Human serine protease enzymes plasmin, thrombin, trypsin, Factor Xa and Factor XIIa were assayed for enzymatic activity using an appropriate fluorogenic substrate. Protease activity was measured by monitoring the accumulation of liberated fluorescence from the substrate over 5 minutes. The linear rate of fluorescence increase per minute was expressed as percentage (%) activity. The Km for the cleavage of each substrate was determined by standard transformation of the Michaelis-Menten equation.

[4] = Determination of thermodynamic solubility in phosphate buffer; assay type: physicochemical; conditions: pH 7.4, aqueous buffer, thermodynamic from solid, ammonium phosphate buffer pH7.4, 290 mOsm, 37° C., nominal 1 mg/mL, read-out: Solubility in PO4 buffer
How it was run: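 Compound at nominal 1 mg/mL in ammonium phosphate buffer (pH7.4, 290 mOsm), shaken 1 h at 37° C., then centrifuged 15,000 g for 10 minutes at 37° C. Supernatant concentration measured by LC-MS/MS against a calibration line from a DMSO stock.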

[5] = physchem; conditions: for solubility: pH 7, aqueous buffer, kinetic from dmso stock
Experimental: Determination of the Kinetic Solubility in Phosphate Buffer
After shaking for approximately 30 seconds the reduction in light transmission of these samples, at 650 nm, was measured (Molecular Devices Spectromax UV/visible spectrophotometer). A second measurement was taken at approximately 30 seconds later.

[6] = fluorogenic substrate H-DPro-Phe-Arg-AFC

Human plasma kallikrein, sequence (P03952 391-638): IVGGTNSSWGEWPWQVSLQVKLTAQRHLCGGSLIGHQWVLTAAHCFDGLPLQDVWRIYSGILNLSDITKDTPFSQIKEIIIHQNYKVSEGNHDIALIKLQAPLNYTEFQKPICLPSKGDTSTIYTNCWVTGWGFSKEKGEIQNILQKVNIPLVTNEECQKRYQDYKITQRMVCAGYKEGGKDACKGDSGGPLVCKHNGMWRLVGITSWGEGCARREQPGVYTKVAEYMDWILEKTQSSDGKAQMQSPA
Human plasma kallikrein, sequence (P03952 20-390 partner): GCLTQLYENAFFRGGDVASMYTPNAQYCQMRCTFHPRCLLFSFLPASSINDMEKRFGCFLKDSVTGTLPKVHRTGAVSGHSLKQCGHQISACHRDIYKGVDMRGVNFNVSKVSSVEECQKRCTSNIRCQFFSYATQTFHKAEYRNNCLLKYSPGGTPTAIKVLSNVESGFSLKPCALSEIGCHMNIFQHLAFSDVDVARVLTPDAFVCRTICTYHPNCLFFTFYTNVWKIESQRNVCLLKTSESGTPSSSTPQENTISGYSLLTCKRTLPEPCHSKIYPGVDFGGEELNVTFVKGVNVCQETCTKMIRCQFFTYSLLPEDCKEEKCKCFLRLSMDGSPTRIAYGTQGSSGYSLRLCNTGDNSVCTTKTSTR

Row | Structure (SMILES) | IC50 ([1]; substrate H-DPro-Phe-Arg-AFC) [nM] | IC50 ([2]; Table 13) [nM] | IC50 [3] [nM] | solubility at 1 h [4] [µg/mL] | solubility in PO4 buffer ([5]; pH 7) [µM] | IC50 [1, 6] [nM] | IC50 ([2]; Table 12) [nM] | solubility [5] [µM]
1 | CCOc1ccc(C[C@@H](NC(=O)c2sccc2Cl)C(=O)N[C@@H](Cc2cscn2)C(=O)NCc2ccc(CN)cc2)cc1 [Example 184, 3-Chloro-thiophene-2-carboxylic acid [(R)-1-[(S)-1-(4-aminomethyl-benzylcarbamoyl)-2-thiazol-4-yl-ethylcarbamoyl]-2-(4-ethoxy-phenyl)-ethyl]-amide] | 10 | > 10000 | > 10000 | – | – | – | – | –
2 | CCOc1ccc(C[C@@H](NC(=O)/C=C/c2ccccc2)C(=O)N[C@@H](Cc2ccccc2)C(=O)NCc2ccc(CN)cc2)cc1 [Example 96, (E)-N-[(R)-1-[(S)-1-(4-Aminomethyl-benzylcarbamoyl)-2-phenyl-ethylcarbamoyl]-2-(4-ethoxy-phenyl)-ethyl]-3-phenyl-acrylamide] | 764 | > 10000 | > 10000 | – | – | – | – | –
3 | CCOc1ccc(C[C@@H](NC(=O)c2ccccc2)C(=O)N(C)[C@@H](Cc2ccccc2)C(=O)NCc2ccc(CN)cc2)cc1 [Example 38, N-[(R)-1-{[(S)-1-(4-Aminomethyl-benzylcarbamoyl)-2-phenyl-ethyl]-methyl-carbamoyl}-2-(4-ethoxy-phenyl)-ethyl]-benzamide] | – | – | – | 14.6 (≈ 24.5 µM) | > 235 | 47 | > 10000 | –
4 | CCOc1ccc(C[C@@H](NC(=O)c2cc(Cl)cc(Cl)c2)C(=O)N[C@@H](Cc2ccccc2)C(=O)NCc2ccc(CN)cc2)cc1 [Example 94, N-[(R)-1-[(S)-1-(4-Aminomethyl-benzylcarbamoyl)-2-phenyl-ethylcarbamoy]-2-(4-ethoxy-phenyl)-ethyl]-3,5-dichloro-benzamide] | 1080 | > 10000 | > 10000 | – | – | – | – | –
5 | CCOc1ccc(C[C@@H](NC(=O)c2cccc(C)c2)C(=O)N[C@@H](Cc2cccnc2)C(=O)NCc2ccc(CN)cc2)cc1 [Example 189, N-[(R)-1-[(S)-1-(4-Aminomethyl-benzylcarbamoyl)-2-pyridin-3-yl-ethylcarbamoyl]-2-(4-ethoxy-phenyl)-ethyl]-3-methyl-benzamide] | 23 | > 10000 | > 10000 | – | – | – | – | –
6 | CCOc1ccc(C[C@@H](NC(=O)c2ccccc2)C(=O)N[C@H](C(=O)NCc2ccc(CN)cc2)[C@H](O)c2ccccc2)cc1 [Example 197, N-[(R)-1-[(1S,2R)-1-(4-Aminomethyl-benzylcarbamoyl)-2-hydroxy-2-phenyl-ethylcarbamoyl]-2-(4-ethoxy-phenyl)-ethyl]-benzamide] | 12 | > 10000 | > 10000 | – | – | – | – | –
7 | CCOc1ccc(C[C@@H](NC(=O)c2ccccc2C)C(=O)N[C@@H](Cc2cccnc2)C(=O)NCc2ccc(CN)cc2)cc1 [Example 190, N-[(R)-1-[(S)-1-(4-Aminomethyl-benzylcarbamoyl)-2-pyridin-3-yl-ethylcarbamoyl]-2-(4-ethoxy-phenyl)-ethyl]-2-methyl-benzamide] | 28 | > 10000 | > 10000 | – | – | – | – | –
8 | CCOc1ccc(C[C@@H](NC(=O)c2sccc2NC(C)=O)C(=O)N[C@@H](Cc2csc3ccccc23)C(=O)NCc2ccc(CN)cc2)cc1 [Example 195, 3-Acetylamino-thiophene-2-carboxylic acid [(R)-1-[(S)-1-(4-aminomethyl-benzylcarbamoyl)-2-benzo[b]thiophen-3-yl-ethylcarbamoyl]-2-(4-ethoxy-phenyl)-ethyl]-amide] | 14 | > 10000 | > 10000 | – | – | – | – | –
9 | CCOc1ccc(C[C@@H](NC(=O)c2sccc2N)C(=O)N[C@@H](Cc2cscn2)C(=O)NCc2ccc(CN)cc2)cc1 [Example 187, 3-Amino-thiophene-2-carboxylic acid [(R)-1-[(S)-1-(4-aminomethyl-benzylcarbamoyl)-2-thiazol-4-yl-ethylcarbamoyl]-2-(4-ethoxy-phenyl)-ethyl]-amide] | 7 | > 10000 | > 10000 | – | – | – | – | –
10 | CCOc1ccc(C[C@@H](NC(=O)c2ccccc2)C(=O)N[C@@H](Cc2ccccc2)C(=O)NCc2ccc(CN)c(C)c2)cc1 [Example 182, N-[(R)-1-[(S)-1-(4-Aminomethyl-3-methyl-benzylcarbamoyl)-2-phenyl-ethylcarbamoyl]-2-(4-ethoxy-phenyl)-ethyl]-benzamide] | 15 | > 10000 | > 10000 | – | – | – | – | –
11 | CCOc1ccc(C[C@@H](NC(=O)Cc2ccccc2)C(=O)N[C@@H](Cc2ccccc2)C(=O)NCc2ccc(CN)cc2)cc1 [Example 85, (S)-N-(4-Aminomethyl-benzyl)-2-[(R)-3-(4-ethoxy-phenyl)-2-phenylacetylamino-propionylamino]-3-phenyl-propionamide] | 485 | 2900 | > 10000 | – | – | – | – | –
12 | CCOc1ccc(C[C@@H](NC(=O)c2sccc2N)C(=O)N[C@@H](Cc2cscn2)C(=O)NCc2ccc(CN)cc2)cc1 [Example 183, 3-Amino-thiophene-2-carboxylic acid [(R)-1-[(S)-1-(4-aminomethyl-benzylcarbamoyl)-2-thiazol-4-yl-ethylcarbamoyl]-2-(4-ethoxy-phenyl)-ethyl]-amide] | 16 | > 10000 | > 10000 | – | – | – | – | –
13 | CCOc1ccc(C[C@@H](NC(=O)c2ccccc2)C(=O)N[C@@H](Cc2cccnc2)C(=O)NCc2ccc(CN)c(C)c2)cc1 [Example 192, N-[(R)-1-[(S)-1-(4-Aminomethyl-3-methyl-benzylcarbamoyl)-2-pyridin-3-yl-ethylcarbamoyl]-2-(4-ethoxy-phenyl)-ethyl]-benzamide] | 12 | > 10000 | > 10000 | – | – | – | – | –
14 | NCc1ccc(CNC(=O)[C@H](Cc2ccccc2)NC(=O)C(Cc2ccc(OCC(F)(F)F)cc2)NC(=O)c2ccccc2)cc1 (stereo partly drawn) [Example 201, N-{(R,S)-1-[(S)-1-(4-Aminomethyl-benzylcarbamoyl)-2-phenyl-ethylcarbamoyl]-2-[4-(2,2,2-trifluoro-ethoxy)-phenyl]-ethyl}-benzamide] | 12 | > 10000 | > 10000 | – | – | – | – | –
15 | CCOc1ccc(C[C@@H](NC(=O)c2[nH]ccc2C)C(=O)N[C@@H](Cc2csc3ccccc23)C(=O)NCc2ccc(CN)cc2)cc1 [Example 186, 3-Methyl-1H-pyrrole-2-carboxylic acid [(R)-1-[(S)-1-(4-aminomethyl-benzylcarbamoyl)-2-benzo[b]thiophen-3-yl-ethylcarbamoyl]-2-(4-ethoxy-phenyl)-ethyl]-amide] | 14 | 3800 | > 10000 | – | – | – | – | –
16 | CCOc1ccc(C[C@@H](NC(=O)c2cccc3ccccc23)C(=O)N[C@@H](Cc2ccccc2)C(=O)NCc2ccc(CN)cc2)cc1 [Example 54, Naphthalene-1-carboxylic acid [(R)-1-[(S)-1-(4-aminomethyl-benzylcarbamoyl)-2-phenyl-ethylcarbamoyl]-2-(4-ethoxy-phenyl)-ethyl]-amide] | – | – | – | 0.8 (≈ 1.27 µM) | – | 83 | – | 12 (≈ 7.55 µg/mL)
17 | CCOc1ccc(C[C@@H](NC(=O)c2sccc2N)C(=O)N[C@@H](Cc2csc3ccccc23)C(=O)NCc2ccc(CN)cc2)cc1 [Example 194, 3-Amino-thiophene-2-carboxylic acid [(R)-1-[(S)-1-(4-aminomethyl-benzylcarbamoyl)-2-benzo[b]thiophen-3-yl-ethylcarbamoyl]-2-(4-ethoxy-phenyl)-ethyl]-amide] | 13 | 7100 | > 10000 | – | – | – | – | –
18 | CCOc1ccc(C[C@@H](NC(=O)c2[nH]c(C)cc2C)C(=O)N[C@@H](Cc2ccccc2)C(=O)NCc2ccc(CN)cc2)cc1 [Example 191, 3,5-Dimethyl-1H-pyrrole-2-carboxylic acid [(R)-1-[(S)-1-(4-aminomethyl-benzylcarbamoyl)-2-phenyl-ethylcarbamoyl]-2-(4-ethoxy-phenyl)-ethyl]-amide] | 20 | > 10000 | > 10000 | – | – | – | – | –
19 | CCOc1ccc(C[C@@H](NC(=O)c2ccc(C)cc2)C(=O)N[C@@H](Cc2cscn2)C(=O)NCc2ccc(CN)cc2)cc1 [Example 185, N-[(R)-1-[(S)-1-(4-Aminomethyl-benzylcarbamoyl)-2-thiazol-4-yl-ethylcarbamoyl]-2-(4-ethoxy-phenyl)-ethyl]-4-methyl-benzamide] | 49 | > 10000 | > 10000 | – | – | – | – | –
20 | CCOc1ccc(C[C@@H](NC(=O)c2ccc(C(F)(F)F)cc2)C(=O)N[C@@H](Cc2ccccc2)C(=O)NCc2ccc(CN)cc2)cc1 [Example 56, N-[(R)-1-[(S)-1-(4-Aminomethyl-benzylcarbamoyl)-2-phenyl-ethylcarbamoyl]-2-(4-ethoxy-phenyl)-ethyl]-4-trifluoromethyl-benzamide] | – | – | – | 0.9 (≈ 1.39 µM) | – | 500 | – | 36 (≈ 23.3 µg/mL)

Source: patent US9234000B2, “Benzylamine derivatives as inhibitors of plasma kallikrein” (KalVista Pharmaceuticals Limited, priority 2011, dated 2016)
